# Reference: PubChem BioAssay (NCI)
#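 Exposure lasted 48 hours, with cells grown in 96-well plates and compounds tested at five concentrations. GI50 = concentration required for 50% inhibition of growth. The concentration for full growth arrest is given as TGI.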
# Legend:
# Experiment in all cases: NCI tumour cell line growth inhibition, 48 h
# TK-10 renal = test system: TK-10 renal
# SF-295 CNS = test system: SF-295 CNS
# OVCAR-8 ovarian = test system: OVCAR-8 ovarian
# HT29 colon = test system: HT29 colon
# NCI/ADR-RES ovarian = test system: NCI/ADR-RES ovarian
# RPMI-8226 leukemia = test system: RPMI-8226 leukemia
# SW-620 colon = test system: SW-620 colon
# CAKI-1 renal = test system: CAKI-1 renal
# MDA-MB-435 = test system: MDA-MB-435
# LOX IMVI melanoma = test system: LOX IMVI melanoma
# SK-MEL-28 melanoma = test system: SK-MEL-28 melanoma
# DU-145 prostate = test system: DU-145 prostate
# SR leukemia = test system: SR leukemia
# RXF 393 renal = test system: RXF 393 renal
# K-562 leukemia = test system: K-562 leukemia
# HOP-62 NSCLC = test system: HOP-62 NSCLC
# BT-549 breast = test system: BT-549 breast
# HCT-116 colon = test system: HCT-116 colon
# EKVX NSCLC = test system: EKVX NSCLC
# UACC-62 melanoma = test system: UACC-62 melanoma
# MCF7 breast = test system: MCF7 breast
# SF-539 CNS = test system: SF-539 CNS
# CCRF-CEM leukemia = test system: CCRF-CEM leukemia
# NCI-H226 lung = test system: NCI-H226 lung
# T-47D breast = test system: T-47D breast
# PC-3 prostate = test system: PC-3 prostate
# HS 578T breast = test system: HS 578T breast
# OVCAR-5 ovarian = test system: OVCAR-5 ovarian
# MALME-3M melanoma = test system: MALME-3M melanoma
# NCI-H460 lung = test system: NCI-H460 lung
# SK-MEL-5 melanoma = test system: SK-MEL-5 melanoma
# IGROV1 ovarian = test system: IGROV1 ovarian
# HCT-15 colon = test system: HCT-15 colon
# U251 CNS = test system: U251 CNS
# MDA-MB-231 breast = test system: MDA-MB-231 breast
# SN12C renal = test system: SN12C renal
# COLO 205 colon = test system: COLO 205 colon
# OVCAR-4 ovarian = test system: OVCAR-4 ovarian
# KM12 colon = test system: KM12 colon
# SNB-19 CNS = test system: SNB-19 CNS
# A498 renal = test system: A498 renal
# UO-31 renal = test system: UO-31 renal
# MOLT-4 leukemia = test system: MOLT-4 leukemia
# UACC-257 melanoma = test system: UACC-257 melanoma
# HCC-2998 colon = test system: HCC-2998 colon
# A549 NSCLC = test system: A549 NSCLC
# SK-MEL-2 melanoma = test system: SK-MEL-2 melanoma
# SF-268 CNS = test system: SF-268 CNS
# 786-0 renal = test system: 786-0 renal
# SK-OV-3 ovarian = test system: SK-OV-3 ovarian
# NCI-H522 lung = test system: NCI-H522 lung
# HOP-92 NSCLC = test system: HOP-92 NSCLC
# SNB-75 CNS = test system: SNB-75 CNS
# HL-60(TB) leukemia = test system: HL-60(TB) leukemia
# ACHN renal = test system: ACHN renal
# M14 melanoma = test system: M14 melanoma
smiles,measurement,setting,value
CNC(=O)c1cc(N2CCc3cc(NC(=O)Nc4ccc(N5CCOCC5)c(C(F)(F)F)c4)ccc32)ccn1,GI50,TK-10 renal,11300 nM
same,TGI,TK-10 renal,> 33300 nM
same,GI50,SF-295 CNS,689 nM
same,TGI,SF-295 CNS,2550 nM
same,GI50,OVCAR-8 ovarian,1800 nM
same,TGI,OVCAR-8 ovarian,> 33300 nM
same,GI50,HT29 colon,1640 nM
same,TGI,HT29 colon,> 33300 nM
same,GI50,NCI/ADR-RES ovarian,2160 nM
same,TGI,NCI/ADR-RES ovarian,> 33300 nM
same,GI50,RPMI-8226 leukemia,614 nM
same,TGI,RPMI-8226 leukemia,2500 nM
same,GI50,SW-620 colon,2340 nM
same,TGI,SW-620 colon,> 33300 nM
same,GI50,CAKI-1 renal,3840 nM
same,TGI,CAKI-1 renal,> 33300 nM
same,GI50,MDA-MB-435,2710 nM
same,TGI,MDA-MB-435,> 33300 nM
same,GI50,LOX IMVI melanoma,1510 nM
same,TGI,LOX IMVI melanoma,17900 nM
same,GI50,SK-MEL-28 melanoma,3520 nM
same,TGI,SK-MEL-28 melanoma,> 33300 nM
same,GI50,DU-145 prostate,3040 nM
same,TGI,DU-145 prostate,> 33300 nM
same,GI50,SR leukemia,946 nM
same,TGI,SR leukemia,> 33300 nM
same,GI50,RXF 393 renal,775 nM
same,TGI,RXF 393 renal,2110 nM
same,GI50,K-562 leukemia,996 nM
same,TGI,K-562 leukemia,> 33300 nM
same,GI50,HOP-62 NSCLC,2560 nM
same,TGI,HOP-62 NSCLC,25000 nM
same,GI50,BT-549 breast,1040 nM
same,TGI,BT-549 breast,2750 nM
same,GI50,HCT-116 colon,1170 nM
same,TGI,HCT-116 colon,10500 nM
same,GI50,EKVX NSCLC,4160 nM
same,TGI,EKVX NSCLC,> 33300 nM
same,GI50,UACC-62 melanoma,776 nM
same,TGI,UACC-62 melanoma,1970 nM
same,GI50,MCF7 breast,1560 nM
same,TGI,MCF7 breast,> 33300 nM
same,GI50,SF-539 CNS,600 nM
same,TGI,SF-539 CNS,> 33300 nM
same,GI50,CCRF-CEM leukemia,1470 nM
same,TGI,CCRF-CEM leukemia,> 33300 nM
same,GI50,NCI-H226 lung,1330 nM
same,TGI,NCI-H226 lung,> 33300 nM
same,GI50,T-47D breast,908 nM
same,TGI,T-47D breast,9030 nM
same,GI50,PC-3 prostate,1170 nM
same,TGI,PC-3 prostate,> 33300 nM
same,GI50,HS 578T breast,779 nM
same,TGI,HS 578T breast,2940 nM
same,GI50,OVCAR-5 ovarian,4950 nM
same,TGI,OVCAR-5 ovarian,> 33300 nM
same,GI50,MALME-3M melanoma,2130 nM
same,TGI,MALME-3M melanoma,> 33300 nM
same,GI50,NCI-H460 lung,1210 nM
same,TGI,NCI-H460 lung,27300 nM
same,GI50,SK-MEL-5 melanoma,1100 nM
same,TGI,SK-MEL-5 melanoma,4720 nM
same,GI50,IGROV1 ovarian,1430 nM
same,TGI,IGROV1 ovarian,> 33300 nM
same,GI50,HCT-15 colon,1170 nM
same,TGI,HCT-15 colon,> 33300 nM
same,GI50,U251 CNS,1320 nM
same,TGI,U251 CNS,> 33300 nM
same,GI50,MDA-MB-231 breast,2470 nM
same,TGI,MDA-MB-231 breast,> 33300 nM
same,GI50,SN12C renal,1260 nM
same,TGI,SN12C renal,> 33300 nM
same,GI50,COLO 205 colon,1150 nM
same,TGI,COLO 205 colon,22000 nM
same,GI50,OVCAR-4 ovarian,1690 nM
same,TGI,OVCAR-4 ovarian,> 33300 nM
same,GI50,KM12 colon,293 nM
same,TGI,KM12 colon,> 33300 nM
same,GI50,SNB-19 CNS,3870 nM
same,TGI,SNB-19 CNS,> 33300 nM
same,GI50,A498 renal,1690 nM
same,TGI,A498 renal,25100 nM
same,GI50,UO-31 renal,1210 nM
same,TGI,UO-31 renal,25100 nM
same,GI50,MOLT-4 leukemia,1210 nM
same,TGI,MOLT-4 leukemia,31100 nM
same,GI50,UACC-257 melanoma,3230 nM
same,TGI,UACC-257 melanoma,> 33300 nM
same,GI50,HCC-2998 colon,2510 nM
same,TGI,HCC-2998 colon,> 33300 nM
same,GI50,A549 NSCLC,1620 nM
same,TGI,A549 NSCLC,> 33300 nM
same,GI50,SK-MEL-2 melanoma,1130 nM
same,TGI,SK-MEL-2 melanoma,5730 nM
same,GI50,SF-268 CNS,5700 nM
same,TGI,SF-268 CNS,> 33300 nM
same,GI50,786-0 renal,1440 nM
same,TGI,786-0 renal,18900 nM
same,GI50,SK-OV-3 ovarian,7160 nM
same,TGI,SK-OV-3 ovarian,> 33300 nM
same,GI50,NCI-H522 lung,1290 nM
same,TGI,NCI-H522 lung,16300 nM
same,GI50,HOP-92 NSCLC,899 nM
same,TGI,HOP-92 NSCLC,5540 nM
same,GI50,SNB-75 CNS,1140 nM
same,TGI,SNB-75 CNS,13800 nM
same,GI50,HL-60(TB) leukemia,904 nM
same,TGI,HL-60(TB) leukemia,5500 nM
same,GI50,ACHN renal,1900 nM
same,TGI,ACHN renal,> 33300 nM
same,GI50,M14 melanoma,1410 nM
same,TGI,M14 melanoma,25000 nM
